Reference: patent publication US9157077B2, “Aminopyrimidine kinase inhibitors” (Jasco Pharmaceuticals, LLC, priority 2009, dated 2015)

Key:
[1] = target: Enzyme (kinases of Table 30) (Homo sapiens, UniProt P11309); test: IC50 of Compound (nM) (ATP present at Km of enzyme), Table 30; assay type: biochemical; settings: Pim-1(h), ATP present at Km of enzyme; read-out: IC50 of Compound, Pim-1(h)
[2] = target: T1, Enzyme (kinases of Table 30) (Homo sapiens, UniProt P68400); test: as above; assay type: biochemical; settings: CK2(h), ATP present at Km of enzyme
T1 construct: IC50 of Compound, CK2(h); other: CK2(h), ATP present at Km of enzyme

[3] = target: T2, Enzyme (kinases of Table 30) (Homo sapiens, UniProt P78368); test: as above; assay type: biochemical; settings: CK1γ2(h), ATP present at Km of enzyme
T2 construct: IC50 of Compound, CK1γ2(h); other: CK1γ2(h), ATP present at Km of enzyme

[4] = target: Enzyme (kinases of Table 30) (Homo sapiens, UniProt Q86V86); test: as above; assay type: biochemical; settings: Pim-3(h), ATP present at Km of enzyme; read-out: IC50 of Compound, Pim-3(h)
[5] = target: Enzyme (kinases of Table 30) (Homo sapiens, UniProt Q9P1W9); test: as above; assay type: biochemical; settings: Pim-2(h), ATP present at Km of enzyme; read-out: IC50 of Compound, Pim-2(h)
[6] = test system: PC-3 cells; test: Cell proliferation study, inhibition of PC-3 cells (MTS); assay type: cell-based; settings: Homo sapiens, 72 hours, read-out: Inhibition Rate %
Description: Inhibition of PC-3 Cells:
(§1) • Cells: PC-3 cells, ATCC Passage unknown, Mycoplasma free. • Medium: DMEM Medium (GIBCO Cat#11995073) supplemented with 10% fetal bovine serum (Hyclone Cat#SH30396.03). • Seeding: 3,000 cells/well (100 μL) into 96-well plates, incubated overnight at 37° C. in a humidified 5% CO2 atmosphere. • Treatment: Test compounds were first diluted 333-fold in the medium. Fifty microliters (50 μL) of diluted compounds were added into each well (i.e., another 3-fold dilution). The final concentration of test compounds was 10 μM. The cells were incubated for 72 hours after addition of the test compounds. • MTS: Added 20 μL of MTS solution (Promega Cat #G5430) into each well and incubated for 4 hours. • Calculation: % of inhibition+(AVE zero ctrl−AVE compound)/AVE zero ctrl*100.

[7] = test system: OVCAR-3 cells; test: Cell proliferation study, inhibition of OVCAR-3 cells (MTS); assay type: cell-based; settings: Homo sapiens, 72 hours, read-out: Inhibition Rate %
Description: Inhibition of OVCAR-3 Cells
as §1, with “OVCAR-3” for “PC-3”, “4,” for “unknown,”, “RPMI-1640” for “DMEM”, “Cat#22400121)” for “Cat#11995073)”, “2,000” for “3,000”

[8] = test system: LNCaP cells; test: Cell proliferation study, inhibition of LNCaP cells (MTS); assay type: cell-based; settings: Homo sapiens, 72 hours, read-out: Inhibition Rate %
Description: Inhibition of LNCaP Cells
as §1, with “LNCaP,” for “PC-3 cells,”, “RPMI-1640” for “DMEM”, “Cat#22400121)” for “Cat#11995073)”

[9] = test system: Jurkat cells; test: Cell proliferation study, inhibition of Jurkat cells (MTS); assay type: cell-based; settings: Homo sapiens, 72 hours, read-out: Inhibition Rate %
Description: Inhibition of Jurkat Cells
as §1, with “Jurkat” for “PC-3”, “RPMI-1640” for “DMEM”, “Cat#22400121)” for “Cat#11995073)”, “serum(Hyclone” for “serum (Hyclone”, “5,000” for “3,000”

[10] = test system: MDA-MB-468 cells; test: Cell proliferation study, inhibition of MDA-MB-468 cells (MTS); assay type: cell-based; settings: Homo sapiens, 72 hours, read-out: Inhibition Rate %
Description: Inhibition of MDA-MB-468 Cells
as §1, with “MDA-MB-468” for “PC-3”, “RPMI-1640” for “DMEM”, “Cat#22400121)” for “Cat#11995073)”, “2,000” for “3,000”

[11] = test system: HCT116 cells; test: Cell proliferation study, inhibition of HCT116 cells (MTS); assay type: cell-based; settings: Homo sapiens, 72 hours, read-out: Inhibition Rate %
Description: Inhibition of HCT116 Cells
as §1, with “• Cells: HCT116 cells, ATCC” for “• Cells: PC-3 cells, ATCC”, “• Seeding: 750 cells/well (100” for “• Seeding: 3,000 cells/well (100”, “hours. • Measurement: Absorbance at 490 nm using MD Spectramax Plus 384 spectrophotometer. • Calculation: %” for “hours. • Calculation: %”

T2 sequence (P78368 whole entry): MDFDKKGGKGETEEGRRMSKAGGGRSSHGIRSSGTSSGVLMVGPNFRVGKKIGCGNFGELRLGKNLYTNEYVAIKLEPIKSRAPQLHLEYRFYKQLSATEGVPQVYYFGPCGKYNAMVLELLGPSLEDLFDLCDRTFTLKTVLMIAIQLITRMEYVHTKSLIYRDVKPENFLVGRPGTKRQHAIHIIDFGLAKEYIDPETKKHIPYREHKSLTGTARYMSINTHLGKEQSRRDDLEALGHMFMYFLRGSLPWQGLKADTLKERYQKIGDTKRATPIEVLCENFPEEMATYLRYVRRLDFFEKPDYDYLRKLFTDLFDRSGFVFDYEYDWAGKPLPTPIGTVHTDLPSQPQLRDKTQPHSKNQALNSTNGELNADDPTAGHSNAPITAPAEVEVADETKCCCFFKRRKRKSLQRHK
Enzyme (kinases of Table 30) (Homo sapiens, UniProt P11309), sequence (P11309 whole entry): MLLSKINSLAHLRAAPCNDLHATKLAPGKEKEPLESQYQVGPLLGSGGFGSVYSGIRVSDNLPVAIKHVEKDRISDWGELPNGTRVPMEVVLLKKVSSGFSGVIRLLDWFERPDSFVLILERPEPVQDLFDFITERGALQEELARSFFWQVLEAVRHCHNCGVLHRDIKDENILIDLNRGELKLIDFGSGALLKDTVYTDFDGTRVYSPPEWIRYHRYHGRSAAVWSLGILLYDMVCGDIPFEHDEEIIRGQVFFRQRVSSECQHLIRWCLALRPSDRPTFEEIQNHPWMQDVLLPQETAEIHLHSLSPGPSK
Enzyme (kinases of Table 30) (Homo sapiens, UniProt Q9P1W9), sequence (Q9P1W9 whole entry): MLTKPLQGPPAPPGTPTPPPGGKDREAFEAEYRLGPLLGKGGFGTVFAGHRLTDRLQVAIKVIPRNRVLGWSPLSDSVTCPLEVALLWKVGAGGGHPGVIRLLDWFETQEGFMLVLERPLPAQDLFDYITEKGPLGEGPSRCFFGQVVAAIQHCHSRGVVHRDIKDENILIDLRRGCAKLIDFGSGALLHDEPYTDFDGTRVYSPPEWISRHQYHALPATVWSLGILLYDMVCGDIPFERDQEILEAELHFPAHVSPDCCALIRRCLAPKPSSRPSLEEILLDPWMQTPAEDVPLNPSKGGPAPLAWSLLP
T1 sequence (P68400 whole entry): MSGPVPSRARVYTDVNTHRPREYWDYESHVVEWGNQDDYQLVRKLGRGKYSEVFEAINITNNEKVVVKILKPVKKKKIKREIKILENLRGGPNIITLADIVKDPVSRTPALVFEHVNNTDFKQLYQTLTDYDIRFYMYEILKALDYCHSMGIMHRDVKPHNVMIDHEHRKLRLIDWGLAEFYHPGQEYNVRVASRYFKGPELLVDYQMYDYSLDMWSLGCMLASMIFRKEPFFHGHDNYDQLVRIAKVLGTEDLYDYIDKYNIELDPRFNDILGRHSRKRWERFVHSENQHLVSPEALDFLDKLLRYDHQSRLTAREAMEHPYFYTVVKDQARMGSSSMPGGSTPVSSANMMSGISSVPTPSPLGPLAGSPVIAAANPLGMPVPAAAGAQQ

Compound: Nc1cccc2c1CCN(c1nccc(/C=C3\SC(=O)NC3=O)n1)C2 [compound 120]
- IC50 [1]: 170 nM
- IC50 [2]: 214 nM
- IC50 [3]: 676 nM
- IC50 [4]: 271 nM
- IC50 [5]: 225 nM

Compound: O=C1NC(=O)/C(=C/c2ccnc(N3CCc4[nH]c5ccccc5c4C3)n2)S1 [compound 91]
- IC50 [1]: 255 nM
- IC50 [2]: 222 nM
- IC50 [4]: 1000 nM
- IC50 [5]: 127 nM

Compound: O=C1NC(=O)/C(=C/c2ccnc(N3CCC(CNCc4cccnc4)CC3)n2)S1 [compound 176]
- IC50 [1]: 487 nM
- IC50 [2]: 669 nM
- IC50 [4]: 18 nM
- IC50 [5]: 108 nM

Compound: Nc1ccn([C@@H]2O[C@H](CO)[C@@H](O)C2(F)F)c(=O)n1 [Gemcitabine, gemcitabine]
- inhibition at 1.2 µM ([6]; positive control 1.2 μM): 6.5%
- inhibition at 3.7 µM ([6]; positive control 3.7 μM): 6.7%
- inhibition at 11.1 µM ([6]; positive control 11.1 μM): 20.9%
- inhibition at 33.3 µM ([6]; positive control 33.3 μM): 47.4%
- inhibition at 100 µM ([6]; positive control 100 μM): 55.7%
- inhibition at 300 µM ([6]; positive control 300 μM): 79.5%
- inhibition at 1.2 µM ([7]; positive control 1.2 μM): 18.2%
- inhibition at 3.7 µM ([7]; positive control 3.7 μM): 25%
- inhibition at 11.1 µM ([7]; positive control 11.1 μM): 31.5%
- inhibition at 33.3 µM ([7]; positive control 33.3 μM): 40.8%
- inhibition at 100 µM ([7]; positive control 100 μM): 85.1%
- inhibition at 300 µM ([7]; positive control 300 μM): 87%
- inhibition at 1.2 µM ([8]; positive control 1.2 μM): 14.5%
- inhibition at 3.7 µM ([8]; positive control 3.7 μM): 60.9%
- inhibition at 11.1 µM ([8]; positive control 11.1 μM): 90.2%
- inhibition at 33.3 µM ([8]; positive control 33.3 μM): 92.9%
- inhibition at 100 µM ([8]; positive control 100 μM): 90.7%
- inhibition at 300 µM ([8]; positive control 300 μM): 90.1%
- inhibition at 1.2 µM ([9]; positive control 1.2 μM): 17.4%
- inhibition at 3.7 µM ([9]; positive control 3.7 μM): 63.9%
- inhibition at 11.1 µM ([9]; positive control 11.1 μM): 84.7%
- inhibition at 33.3 µM ([9]; positive control 33.3 μM): 105%
- inhibition at 100 µM ([9]; positive control 100 μM): 106%
- inhibition at 300 µM ([9]; positive control 300 μM): 104%
- inhibition at 1.2 µM ([10]; positive control 1.2 μM): 16.4%
- inhibition at 3.7 µM ([10]; positive control 3.7 μM): 31.2%
- inhibition at 11.1 µM ([10]; positive control 11.1 μM): 80.7%
- inhibition at 33.3 µM ([10]; positive control 33.3 μM): 91.7%
- inhibition at 100 µM ([10]; positive control 100 μM): 88.8%
- inhibition at 300 µM ([10]; positive control 300 μM): 94.9%
- inhibition at 1.2 µM ([11]; HCT-116, positive control 1.2 μM): 50.1%
- inhibition at 3.7 µM ([11]; HCT-116, positive control 3.7 μM): 79.3%
- inhibition at 11.1 µM ([11]; HCT-116, positive control 11.1 μM): 85.6%
- inhibition at 33.3 µM ([11]; HCT-116, positive control 33.3 μM): 85.6%
- inhibition at 100 µM ([11]; HCT-116, positive control 100 μM): 85.4%
- inhibition at 300 µM ([11]; HCT-116, positive control 300 μM): 87.6%

Compound: O=C1NC(=O)/C(=C/c2ccnc(N3CCC(CNCc4ccncc4)CC3)n2)S1 [compound 177]
- IC50 [1]: 96 nM
- IC50 [2]: 705 nM
- IC50 [4]: 22 nM
- IC50 [5]: 87 nM

Compound: O=C1NC(=O)/C(=C/c2ccnc(N3CCC(c4c[nH]c5ccccc45)CC3)n2)S1 [compound 94]
- IC50 [3]: 38 nM

Compound: O=C1NC(=O)/C(=C/c2ccnc(N3CCC(CCO)CC3)n2)S1 [compound 106]
- IC50 [1]: 166 nM
- IC50 [2]: 361 nM
- IC50 [4]: 298 nM
- IC50 [5]: 127 nM

Compound: CN(CC1CCNCC1)c1nccc(/C=C2\SC(=O)NC2=O)n1 [compound 151]
- IC50 [1]: 246 nM
- IC50 [2]: 415 nM
- IC50 [4]: 171 nM
- IC50 [5]: 98 nM

Compound: O=C1NC(=O)/C(=C/c2ccnc(N3CCC(CO)CC3)n2)S1 [compound 98]
- IC50 [1]: 204 nM
- IC50 [2]: 422 nM
- IC50 [4]: 169 nM
- IC50 [5]: 136 nM

Compound: CN(c1nccc(/C=C2\SC(=O)NC2=O)n1)[C@H]1CCCNC1 [compound 143]
- IC50 [1]: 20 nM
- IC50 [2]: 66 nM
- IC50 [4]: 3 nM
- IC50 [5]: 5 nM

Compound: Nc1ccc2c(c1)CN(c1nccc(/C=C3\SC(=O)NC3=O)n1)CC2 [compound 90]
- IC50 [1]: 97 nM
- IC50 [2]: 291 nM
- IC50 [4]: 419 nM
- IC50 [5]: 89 nM

Compound: CN1CCC(CNc2nccc(/C=C3\SC(=O)NC3=O)n2)CC1 [compound 92]
- IC50 [1]: 628 nM
- IC50 [2]: 186 nM
- IC50 [4]: 31 nM
- IC50 [5]: 228 nM

Compound: COc1cccc2ccc(CNCC3CCN(c4nccc(/C=C5\SC(=O)NC5=O)n4)CC3)nc12 [compound 189]
- IC50 [1]: 4 nM
- IC50 [2]: 364 nM
- IC50 [3]: 164 nM
- IC50 [4]: 4 nM
- IC50 [5]: 9 nM

Compound: O=C1NC(=O)/C(=C/c2ccnc(N3CCC(c4nc(-c5ccncc5)no4)CC3)n2)S1 [compound 86]
- IC50 [3]: 86 nM

Compound: O=C1NC(=O)/C(=C/c2ccnc(N3CCC(CNc4ccc5ccccc5n4)CC3)n2)S1 [compound 219]
- IC50 [1]: 475 nM
- IC50 [2]: 476 nM
- IC50 [4]: 249 nM
- IC50 [5]: 146 nM

Compound: CCCCN(C)c1nccc(/C=C2\SC(=O)NC2=O)n1 [compound 87]
- IC50 [1]: 295 nM
- IC50 [2]: 261 nM
- IC50 [4]: 263 nM
- IC50 [5]: 80 nM

Compound: O=C1NC(=O)/C(=C/c2ccnc(NCC3CCNCC3)n2)S1 [compound 147]
- IC50 [1]: 258 nM
- IC50 [2]: 134 nM
- IC50 [4]: 31 nM
- IC50 [5]: 90 nM

Compound: O=C1NC(=O)/C(=C/c2ccnc(N[C@H]3CCCNC3)n2)S1 [compound 144]
- IC50 [1]: 78 nM
- IC50 [2]: 23 nM
- IC50 [4]: 9 nM
- IC50 [5]: 18 nM
